Results on 26 compounds are retold here after patent US12673961B2 (Agios Pharmaceuticals, Inc., priority 2022, dated 2026).

Structures are written as SMILES.

The target of the assay is T1, human PAH with the R408W mutation (Homo sapiens, UniProt P00439, R408W).
T1 construct: expressed in transfected cells
T1 sequence (P00439 1-452 R408W): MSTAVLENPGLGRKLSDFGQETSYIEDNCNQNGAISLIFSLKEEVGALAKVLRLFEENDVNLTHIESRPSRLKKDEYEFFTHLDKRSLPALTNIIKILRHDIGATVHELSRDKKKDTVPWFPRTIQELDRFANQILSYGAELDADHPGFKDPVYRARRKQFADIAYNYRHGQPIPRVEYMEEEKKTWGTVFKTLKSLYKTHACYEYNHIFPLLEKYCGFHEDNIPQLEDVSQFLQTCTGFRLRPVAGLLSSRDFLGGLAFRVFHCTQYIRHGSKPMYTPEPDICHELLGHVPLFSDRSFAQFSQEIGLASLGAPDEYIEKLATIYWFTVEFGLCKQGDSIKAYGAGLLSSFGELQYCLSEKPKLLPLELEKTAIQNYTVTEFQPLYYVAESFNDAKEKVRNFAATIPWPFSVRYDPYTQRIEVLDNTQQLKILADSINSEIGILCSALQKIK
Briefly: Cell Based Phenylalanine Flux Assay.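 Note: Ten-point dose curve from 2-fold serial dilutions, run in duplicate at 0.5% DMSO final, tracer step used 20 µM sepiapterin and 800 µM labeled phenylalanine.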 The note with it: A375 cells expressing human R408W PAH; 24 hrs with compound, then sepiapterin and 13C9,15N-Phenylalanine for 4 hours; 13C-Tyrosine by LC-MS; average where tested multiple times; read-out: AC50.
Take `Fc1ccc(-c2nnc(N3CCc4[nH]cnc4[C@@H]3c3cc4cccc(Cl)n4n3)o2)cc1` [Example 2087, (R)-2-(4-(7-chloropyrazolo [1,5-a]pyridin-2-yl)-1,4,6,7-tetrahydro-5H-imidazo [4,5-c]pyridin-5-yl)-5-(4-fluorophenyl)-1,3,4-oxadiazole]: the AC50 (as a rule, the midpoint of the concentration-response curve, whichever way the signal moves) was above 5 µM. The value for `Fc1cccc(F)c1-c1nnc(N2CCc3[nH]cnc3[C@@H]2c2cc3cccc(Cl)n3n2)o1` [Example 2088, (R)-2-(4-(7-chloropyrazolo [1,5-a]pyridin-2-yl)-1,4,6,7-tetrahydro-5H-imidazo [4,5-c]pyridin-5-yl)-5-(2,6-difluorophenyl)-1,3,4-oxadiazole] was above 5 µM; that for `Cc1cccc2cc([C@H]3c4nc[nH]c4CCN3c3nnc(-c4c(F)cccc4F)o3)nn12` [Example 2090, (R)-2-(2,6-difluorophenyl)-5-(4-(7-methylpyrazolo[1,5-a]pyridin-2-yl)-1,4,6,7-tetrahydro-5H-imidazo[4,5-c]pyridin-5-yl)-1,3,4-oxadiazole] was above 5 µM; that for `Cc1cccc2cc([C@@H]3c4nc[nH]c4CCN3c3ccc(C(F)(F)F)cn3)nn12` [Example 2097, (S)-4-(7-methylpyrazolo [1,5-a]pyridin-2-yl)-5-(5-(trifluoromethyl)pyridin-2-yl)-4,5,6,7-tetrahydro-1H-imidazo[4,5-c]pyridine] was 0.5 to 1 µM.

For `CC(C)(C)c1ncc(C(=O)N2CCc3[nH]cnc3[C@H]2c2cc3c(F)cccn3n2)o1` [Example 2100, (S)-(2-(tert-butyl)oxazol-5-yl)(4-(4-fluoropyrazolo[1,5-a]pyridin-2-yl)-1,4,6,7-tetrahydro-5H-imidazo[4,5-c]pyridin-5-yl)methanone], the AC50 was below 0.5 µM. For `Cn1cc(-c2nc(C3CC3)c(C(=O)N3CCc4[nH]cnc4[C@H]3c3cc4c(C(F)F)cccn4n3)o2)cn1` [Example 2114, (S)-(4-cyclopropyl-2-(1-methyl-1H-pyrazol-4-yl)oxazol-5-yl)(4-(4-(difluoromethyl)pyrazolo[1,5-a]pyridin-2-yl)-1,4,6,7-tetrahydro-5H-imidazo[4,5-c]pyridin-5-yl)methanone], the AC50 fell in the range of 0.5 to 1 µM. Consider `Cn1cc(-c2nc(C3CC3)c(C(=O)N3CCc4[nH]cnc4[C@H]3c3cc4c(C(F)(F)F)cccn4n3)o2)cn1` [Example 2116, (S)-(4-cyclopropyl-2-(1-methyl-1H-pyrazol-4-yl)oxazol-5-yl)(4-(4-(trifluoromethyl)pyrazolo[1,5-a]pyridin-2-yl)-1,4,6,7-tetrahydro-5H-imidazo[4,5-c]pyridin-5-yl)methanone], for which the AC50 was below 0.5 µM. The figure for `Cn1cc(-c2nc(C3CC3)c(C(=O)N3CCc4[nH]cnc4[C@@H]3c3cc4c(C(F)(F)F)cccn4n3)o2)cn1` [Example 2117, (R)-(4-cyclopropyl-2-(1-methyl-1H-pyrazol-4-yl)oxazol-5-yl)(4-(4-(trifluoromethyl)pyrazolo[1,5-a]pyridin-2-yl)-1,4,6,7-tetrahydro-5H-imidazo[4,5-c]pyridin-5-yl)methanone] is 1 to 5 µM; for `Cc1cccn2nc([C@H]3c4nc[nH]c4CCN3C(=O)c3oc(-c4ccccn4)nc3C3CC3)cc12` [Example 2121, (R)-(4-cyclopropyl-2-(pyridin-2-yl)oxazol-5-yl)(4-(4-methylpyrazolo[1,5-a]pyridin-2-yl)-1,4,6,7-tetrahydro-5H-imidazo[4,5-c]pyridin-5-yl)methanone] it is 1 to 5 µM. As to `O=C(c1oc(-c2ccccn2)nc1C1CC1)N1CCc2[nH]cnc2[C@H]1c1cc2c(C(F)(F)F)cccn2n1` [Example 2124, (S)-(4-cyclopropyl-2-(pyridin-2-yl)oxazol-5-yl)(4-(4-(trifluoromethyl)pyrazolo [1,5-a]pyridin-2-yl)-1,4,6,7-tetrahydro-5H-imidazo[4,5-c]pyridin-5-yl)methanone], the AC50 is below 0.5 µM. With `Cc1cccn2nc([C@@H]3c4nc[nH]c4CCN3c3ccccn3)cc12` [Example 2127, (S)-4-(4-methylpyrazolo [1,5-a]pyridin-2-yl)-5-(pyridin-2-yl)-4,5,6,7-tetrahydro-1H-imidazo[4,5-c]pyridine], the AC50 is below 0.5 µM.

Consider `FC(F)(F)c1ccc(N2CCc3[nH]cnc3[C@H]2c2cc3cccc(Cl)n3n2)nc1` [Example 2136, (S)-4-(7-chloropyrazolo [1,5-a]pyridin-2-yl)-5-(5-(trifluoromethyl)pyridin-2-yl)-4,5,6,7-tetrahydro-1H-imidazo[4,5-c]pyridine], for which the AC50 was below 0.5 µM. With `CC(C)c1cccn2nc([C@@H]3c4nc[nH]c4CCN3c3nnc(C(F)(F)F)o3)cc12` [Example 2147, (S)-2-(4-(4-isopropylpyrazolo [1,5-a]pyridin-2-yl)-1,4,6,7-tetrahydro-5H-imidazo [4,5-c]pyridin-5-yl)-5-(trifluoromethyl)-1,3,4-oxadiazole], the AC50 was below 0.5 µM. With `CC(C)c1cccn2nc([C@@H]3c4nc[nH]c4CCN3c3ccc(C(F)(F)F)cn3)cc12` [Example 2148, (S)-4-(4-isopropylpyrazolo [1,5-a]pyridin-2-yl)-5-(5-(trifluoromethyl)pyridin-2-yl)-4,5,6,7-tetrahydro-1H-imidazo[4,5-c]pyridine], the AC50 was below 0.5 µM. As for `FC(F)Oc1cccn2nc([C@H]3c4nc[nH]c4CCN3c3nnc(C(F)(F)F)o3)cc12` [Example 2154, (R)-2-(4-(4-(difluoromethoxy)pyrazolo[1,5-a]pyridin-2-yl)-1,4,6,7-tetrahydro-5H-imidazo[4,5-c]pyridin-5-yl)-5-(trifluoromethyl)-1,3,4-oxadiazole], the AC50 is above 5 µM. Consider `FC(F)Oc1cccn2nc([C@@H]3c4nc[nH]c4CCN3c3nnc(C(F)(F)F)o3)cc12` [Example 2155, (S)-2-(4-(4-(difluoromethoxy)pyrazolo[1,5-a]pyridin-2-yl)-1,4,6,7-tetrahydro-5H-imidazo[4,5-c]pyridin-5-yl)-5-(trifluoromethyl)-1,3,4-oxadiazole], for which the AC50 was below 0.5 µM. As for `Fc1cccn2nc([C@@H]3c4nc[nH]c4CCN3c3nnc(-c4cnccn4)o3)cc12` [Example 2159, (S)-2-(4-(4-fluoropyrazolo [1,5-a]pyridin-2-yl)-1,4,6,7-tetrahydro-5H-imidazo[4,5-c]pyridin-5-yl)-5-(pyrazin-2-yl)-1,3,4-oxadiazole], the AC50 was in the range of 0.5 to 1 µM. Take `Clc1cccn2nc([C@H]3c4nc[nH]c4CCN3c3nnc(-c4cnccn4)o3)cc12` [Example 2160, (R)-2-(4-(4-chloropyrazolo [1,5-a]pyridin-2-yl)-1,4,6,7-tetrahydro-5H-imidazo[4,5-c]pyridin-5-yl)-5-(pyrazin-2-yl)-1,3,4-oxadiazole]: the AC50 was above 5 µM. As to `Clc1cccn2nc([C@@H]3c4nc[nH]c4CCN3c3nnc(-c4cnccn4)o3)cc12` [Example 2161, (S)-2-(4-(4-chloropyrazolo [1,5-a]pyridin-2-yl)-1,4,6,7-tetrahydro-5H-imidazo[4,5-c]pyridin-5-yl)-5-(pyrazin-2-yl)-1,3,4-oxadiazole], the AC50 is below 0.5 µM. For `FC(F)c1nnc(N2CCc3[nH]cnc3[C@H]2c2cc3c(C4CC4)cccn3n2)o1` [Example 2167], the AC50 is below 0.5 µM. The value for `CC(C)c1cccn2nc([C@H]3c4nc[nH]c4CCN3c3nnc(-c4cnccn4)o3)cc12` [Example 2176, (R)-2-(4-(4-isopropylpyrazolo [1,5-a]pyridin-2-yl)-1,4,6,7-tetrahydro-5H-imidazo [4,5-c]pyridin-5-yl)-5-(pyrazin-2-yl)-1,3,4-oxadiazole] was above 5 µM; that for `CC(C)c1cccn2nc([C@@H]3c4nc[nH]c4CCN3c3nnc(-c4cnccn4)o3)cc12` [Example 2177, (S)-2-(4-(4-isopropylpyrazolo [1,5-a]pyridin-2-yl)-1,4,6,7-tetrahydro-5H-imidazo [4,5-c]pyridin-5-yl)-5-(pyrazin-2-yl)-1,3,4-oxadiazole] was 0.5 to 1 µM; that for `Fc1cccn2nc([C@@H]3c4nc[nH]c4CCN3c3nnc(-c4ccncn4)o3)cc12` [Example 2178, (S)-2-(4-(4-fluoropyrazolo [1,5-a]pyridin-2-yl)-1,4,6,7-tetrahydro-5H-imidazo[4,5-c]pyridin-5-yl)-5-(pyrimidin-4-yl)-1,3,4-oxadiazole] was 0.5 to 1 µM. Turning to `Clc1cccn2nc([C@@H]3c4nc[nH]c4CCN3c3nnc(-c4ccncn4)o3)cc12` [Example 2182, (S)-2-(4-(4-chloropyrazolo [1,5-a]pyridin-2-yl)-1,4,6,7-tetrahydro-5H-imidazo[4,5-c]pyridin-5-yl)-5-(pyrimidin-4-yl)-1,3,4-oxadiazole], the AC50 fell in the range of 0.5 to 1 µM. For `Cc1cccn2nc([C@H]3c4nc[nH]c4CCN3c3nnc(C4(C)CC4)o3)cc12` [Example 2188, (R)-2-(1-methylcyclopropyl)-5-(4-(4-methylpyrazolo[1,5-a]pyridin-2-yl)-1,4,6,7-tetrahydro-5H-imidazo[4,5-c]pyridin-5-yl)-1,3,4-oxadiazole], the AC50 was above 5 µM. Turning to `Cc1ncccc1-c1nnc(N2CCc3[nH]cnc3[C@H]2c2cc3c(C)cccn3n2)o1` [Example 2206, (S)-2-(4-(4-methylpyrazolo [1,5-a]pyridin-2-yl)-1,4,6,7-tetrahydro-5H-imidazo [4,5-c]pyridin-5-yl)-5-(2-methylpyridin-3-yl)-1,3,4-oxadiazole], the AC50 fell in the range of 0.5 to 1 µM.
